Measurements as given in ChEMBL document CHEMBL1909046, “DrugMatrix in vitro pharmacology data”.

Biological target: T1, Substance-K receptor (Homo sapiens, UniProt P21452); further: in other assays of this panel Not Active means under 50% inhibition at 10 µM
T1 sequence (P21452 whole entry): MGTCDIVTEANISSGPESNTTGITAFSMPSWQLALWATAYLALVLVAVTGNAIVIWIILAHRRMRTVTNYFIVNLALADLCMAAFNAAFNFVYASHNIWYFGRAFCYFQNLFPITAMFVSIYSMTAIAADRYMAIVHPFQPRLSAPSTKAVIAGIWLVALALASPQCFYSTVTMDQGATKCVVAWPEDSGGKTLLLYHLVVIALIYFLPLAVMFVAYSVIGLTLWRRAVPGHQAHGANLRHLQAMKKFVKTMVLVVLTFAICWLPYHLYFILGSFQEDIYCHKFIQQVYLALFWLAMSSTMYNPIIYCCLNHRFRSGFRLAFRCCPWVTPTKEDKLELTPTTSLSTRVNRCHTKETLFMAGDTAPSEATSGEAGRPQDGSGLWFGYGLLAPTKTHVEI
Test: not given
Assay type: cell membranes, CHO, Membrane
Conditions: cho

Structure (SMILES) | IC50
C=C(C)[C@@H]1[C@H]2OC(=O)[C@@H]1[C@]1(O)C[C@H]3O[C@]34C(=O)O[C@H]2[C@]14C [PICROTOXININ] | Not Active
CCc1ccc(C(=O)C(C)CN2CCCCC2)cc1 (centres undefined) [EPERISONE] | Not Active
C/C=C1\[C@H]2C=C(C)C[C@]1(N)c1ccc(=O)[nH]c1C2 [HUPERZINE A] | Not Active
CC1COc2c(N3CCN(C)CC3)c(F)cc3c(=O)c(C(=O)O)cn1c23 (centres undefined) [OFLOXACIN] | Not Active

Test system: not listed separately
Test: DRUGMATRIX: Nicotinic Acetylcholine radioligand binding (ligand: [125I] Epibatidine)
Assay type: cell membranes, Membrane
Conditions: imr-32; Not Active = under 50% inhibition at 10 µM

Structure (SMILES) | IC50 | Ki
C=C(C)[C@@H]1[C@H]2OC(=O)[C@@H]1[C@]1(O)C[C@H]3O[C@]34C(=O)O[C@H]2[C@]14C [PICROTOXININ] | Not Active | Not Active
CCc1ccc(C(=O)C(C)CN2CCCCC2)cc1 (centres undefined) [EPERISONE] | Not Active | Not Active
C/C=C1\[C@H]2C=C(C)C[C@]1(N)c1ccc(=O)[nH]c1C2 [HUPERZINE A] | Not Active | Not Active
CC1COc2c(N3CCN(C)CC3)c(F)cc3c(=O)c(C(=O)O)cn1c23 (centres undefined) [OFLOXACIN] | Not Active | Not Active

Test system: not listed separately
Test: DRUGMATRIX: GABAA, Muscimol, Central radioligand binding (ligand: [3H] Muscimol)
Assay type: cell membranes, Rattus norvegicus, Wistar, Brain, Membrane
Conditions: Not Active = under 50% inhibition at 10 µM

Structure (SMILES) | IC50 | Ki
C=C(C)[C@@H]1[C@H]2OC(=O)[C@@H]1[C@]1(O)C[C@H]3O[C@]34C(=O)O[C@H]2[C@]14C [PICROTOXININ] | Not Active | Not Active
CCc1ccc(C(=O)C(C)CN2CCCCC2)cc1 (centres undefined) [EPERISONE] | Not Active | Not Active
C/C=C1\[C@H]2C=C(C)C[C@]1(N)c1ccc(=O)[nH]c1C2 [HUPERZINE A] | Not Active | Not Active
CC1COc2c(N3CCN(C)CC3)c(F)cc3c(=O)c(C(=O)O)cn1c23 (centres undefined) [OFLOXACIN] | Not Active | Not Active

Biological target: C-C chemokine receptor type 5 (Homo sapiens, UniProt P51681); further: in other assays of this panel Not Active means under 50% inhibition at 10 µM
Test: not given
Assay type: cell membranes, Membrane
Conditions: hek293

Sequence of C-C chemokine receptor type 5 (P51681 whole entry): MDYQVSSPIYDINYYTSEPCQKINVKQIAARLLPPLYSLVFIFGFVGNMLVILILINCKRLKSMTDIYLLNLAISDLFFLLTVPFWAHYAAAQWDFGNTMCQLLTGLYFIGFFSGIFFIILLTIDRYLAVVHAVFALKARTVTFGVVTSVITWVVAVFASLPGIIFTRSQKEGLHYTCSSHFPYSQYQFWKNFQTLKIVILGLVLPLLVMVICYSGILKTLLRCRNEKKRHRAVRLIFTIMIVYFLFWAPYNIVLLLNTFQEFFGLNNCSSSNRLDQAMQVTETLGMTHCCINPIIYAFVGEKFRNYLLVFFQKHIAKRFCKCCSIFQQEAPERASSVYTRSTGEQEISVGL

Structure (SMILES) | IC50
C=C(C)[C@@H]1[C@H]2OC(=O)[C@@H]1[C@]1(O)C[C@H]3O[C@]34C(=O)O[C@H]2[C@]14C [PICROTOXININ] | Not Active
CCc1ccc(C(=O)C(C)CN2CCCCC2)cc1 (centres undefined) [EPERISONE] | Not Active
C/C=C1\[C@H]2C=C(C)C[C@]1(N)c1ccc(=O)[nH]c1C2 [HUPERZINE A] | Not Active
CC1COc2c(N3CCN(C)CC3)c(F)cc3c(=O)c(C(=O)O)cn1c23 (centres undefined) [OFLOXACIN] | Not Active

Biological target: Mitogen-activated protein kinase 3 (Homo sapiens, UniProt P27361)
Test: DRUGMATRIX: Protein Serine/Threonine Kinase, ERK1 enzyme inhibition (substrate: Myelin Basic Protein)
Set-up: species or system Escherichia coli
Conditions: Not Active = under 50% inhibition at 10 µM

Sequence of Mitogen-activated protein kinase 3 (P27361 whole entry): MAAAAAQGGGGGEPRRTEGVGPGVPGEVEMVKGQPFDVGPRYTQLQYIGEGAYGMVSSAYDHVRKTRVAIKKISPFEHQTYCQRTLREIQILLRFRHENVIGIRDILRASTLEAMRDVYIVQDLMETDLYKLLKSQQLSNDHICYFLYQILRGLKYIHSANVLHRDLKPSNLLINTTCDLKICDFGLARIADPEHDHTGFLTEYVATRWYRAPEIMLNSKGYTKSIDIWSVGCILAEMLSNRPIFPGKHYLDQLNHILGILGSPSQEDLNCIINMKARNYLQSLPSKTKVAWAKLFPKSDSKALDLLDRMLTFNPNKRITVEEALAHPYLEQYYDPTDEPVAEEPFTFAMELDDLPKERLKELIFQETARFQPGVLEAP

Structure (SMILES) | IC50
C=C(C)[C@@H]1[C@H]2OC(=O)[C@@H]1[C@]1(O)C[C@H]3O[C@]34C(=O)O[C@H]2[C@]14C [PICROTOXININ] | Not Active
CCc1ccc(C(=O)C(C)CN2CCCCC2)cc1 (centres undefined) [EPERISONE] | Not Active
C/C=C1\[C@H]2C=C(C)C[C@]1(N)c1ccc(=O)[nH]c1C2 [HUPERZINE A] | Not Active
CC1COc2c(N3CCN(C)CC3)c(F)cc3c(=O)c(C(=O)O)cn1c23 (centres undefined) [OFLOXACIN] | Not Active

Biological target: Substance-P receptor (Homo sapiens, UniProt P25103); further: in other assays of this panel Not Active means under 50% inhibition at 10 µM
Test: not given
Assay type: cell membranes, CHO, Membrane
Conditions: cho

Sequence of Substance-P receptor (P25103 whole entry): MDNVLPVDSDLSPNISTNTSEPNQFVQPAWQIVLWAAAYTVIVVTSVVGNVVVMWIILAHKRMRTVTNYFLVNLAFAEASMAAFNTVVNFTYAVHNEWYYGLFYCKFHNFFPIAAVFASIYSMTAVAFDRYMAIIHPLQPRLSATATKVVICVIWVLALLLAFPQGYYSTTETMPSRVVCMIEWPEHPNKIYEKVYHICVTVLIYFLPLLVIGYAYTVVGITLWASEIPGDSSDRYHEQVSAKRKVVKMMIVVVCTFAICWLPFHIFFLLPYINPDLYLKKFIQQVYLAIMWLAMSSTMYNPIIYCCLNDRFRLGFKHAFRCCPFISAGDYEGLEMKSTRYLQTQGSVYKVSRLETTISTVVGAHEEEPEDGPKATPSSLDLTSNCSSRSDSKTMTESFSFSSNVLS

Structure (SMILES) | IC50
C=C(C)[C@@H]1[C@H]2OC(=O)[C@@H]1[C@]1(O)C[C@H]3O[C@]34C(=O)O[C@H]2[C@]14C [PICROTOXININ] | Not Active
CCc1ccc(C(=O)C(C)CN2CCCCC2)cc1 (centres undefined) [EPERISONE] | Not Active
C/C=C1\[C@H]2C=C(C)C[C@]1(N)c1ccc(=O)[nH]c1C2 [HUPERZINE A] | Not Active
CC1COc2c(N3CCN(C)CC3)c(F)cc3c(=O)c(C(=O)O)cn1c23 (centres undefined) [OFLOXACIN] | Not Active

Biological target: T2, Calcitonin receptor (Homo sapiens, UniProt P30988); further: in other assays of this panel Not Active means under 50% inhibition at 10 µM
T2 sequence (P30988 whole entry): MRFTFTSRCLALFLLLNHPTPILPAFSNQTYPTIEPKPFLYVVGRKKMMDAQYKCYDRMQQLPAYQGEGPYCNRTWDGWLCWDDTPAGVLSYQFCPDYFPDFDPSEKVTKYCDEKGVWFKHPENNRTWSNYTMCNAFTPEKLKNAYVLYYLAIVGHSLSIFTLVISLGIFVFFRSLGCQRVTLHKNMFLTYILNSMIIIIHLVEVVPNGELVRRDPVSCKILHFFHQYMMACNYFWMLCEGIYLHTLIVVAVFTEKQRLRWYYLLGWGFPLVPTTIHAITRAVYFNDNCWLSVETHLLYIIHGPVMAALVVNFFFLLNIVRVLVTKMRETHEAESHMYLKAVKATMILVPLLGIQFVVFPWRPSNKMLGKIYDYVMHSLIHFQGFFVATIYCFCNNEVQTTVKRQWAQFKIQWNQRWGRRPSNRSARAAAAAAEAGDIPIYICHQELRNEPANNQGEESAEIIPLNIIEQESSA
Test: not given
Assay type: cell membranes, Membrane
Conditions: t47d

Structure (SMILES) | IC50
C=C(C)[C@@H]1[C@H]2OC(=O)[C@@H]1[C@]1(O)C[C@H]3O[C@]34C(=O)O[C@H]2[C@]14C [PICROTOXININ] | Not Active
CCc1ccc(C(=O)C(C)CN2CCCCC2)cc1 (centres undefined) [EPERISONE] | Not Active
C/C=C1\[C@H]2C=C(C)C[C@]1(N)c1ccc(=O)[nH]c1C2 [HUPERZINE A] | Not Active
CC1COc2c(N3CCN(C)CC3)c(F)cc3c(=O)c(C(=O)O)cn1c23 (centres undefined) [OFLOXACIN] | Not Active

Test system: not listed separately
Test: DRUGMATRIX: Interleukin IL-1 radioligand binding (ligand: [125I] interleukin 1beta)
Assay type: cell membranes, Membrane
Conditions: nih3t3; Not Active = under 50% inhibition at 10 µM

Structure (SMILES) | IC50 | Ki
C=C(C)[C@@H]1[C@H]2OC(=O)[C@@H]1[C@]1(O)C[C@H]3O[C@]34C(=O)O[C@H]2[C@]14C [PICROTOXININ] | Not Active | Not Active
CCc1ccc(C(=O)C(C)CN2CCCCC2)cc1 (centres undefined) [EPERISONE] | Not Active | Not Active
C/C=C1\[C@H]2C=C(C)C[C@]1(N)c1ccc(=O)[nH]c1C2 [HUPERZINE A] | Not Active | Not Active
CC1COc2c(N3CCN(C)CC3)c(F)cc3c(=O)c(C(=O)O)cn1c23 (centres undefined) [OFLOXACIN] | Not Active | Not Active

Biological target: Adenosine receptor A2a (Homo sapiens, UniProt P29274)
Test: DRUGMATRIX: Adenosine A2A radioligand binding (ligand: […])
Assay type: cell membranes, HEK293, Membrane
Conditions: hek293; Not Active = under 50% inhibition at 10 µM

Sequence of Adenosine receptor A2a (P29274 whole entry): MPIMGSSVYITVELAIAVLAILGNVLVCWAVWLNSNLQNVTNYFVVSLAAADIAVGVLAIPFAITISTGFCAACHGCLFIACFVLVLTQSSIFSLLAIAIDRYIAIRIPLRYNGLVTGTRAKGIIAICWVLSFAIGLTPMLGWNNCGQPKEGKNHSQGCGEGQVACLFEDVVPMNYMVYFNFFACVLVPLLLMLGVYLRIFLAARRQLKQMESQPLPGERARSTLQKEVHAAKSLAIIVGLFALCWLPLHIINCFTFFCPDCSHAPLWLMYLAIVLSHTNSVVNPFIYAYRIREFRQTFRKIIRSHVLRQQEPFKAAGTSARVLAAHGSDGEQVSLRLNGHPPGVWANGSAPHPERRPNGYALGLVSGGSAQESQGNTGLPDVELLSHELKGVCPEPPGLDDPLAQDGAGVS

Structure (SMILES) | IC50
C=C(C)[C@@H]1[C@H]2OC(=O)[C@@H]1[C@]1(O)C[C@H]3O[C@]34C(=O)O[C@H]2[C@]14C [PICROTOXININ] | Not Active
CCc1ccc(C(=O)C(C)CN2CCCCC2)cc1 (centres undefined) [EPERISONE] | Not Active
C/C=C1\[C@H]2C=C(C)C[C@]1(N)c1ccc(=O)[nH]c1C2 [HUPERZINE A] | Not Active
CC1COc2c(N3CCN(C)CC3)c(F)cc3c(=O)c(C(=O)O)cn1c23 (centres undefined) [OFLOXACIN] | Not Active

Biological target: T3, Angiotensin-converting enzyme (Oryctolagus cuniculus, UniProt P12822)
T3 sequence (P12822 whole entry): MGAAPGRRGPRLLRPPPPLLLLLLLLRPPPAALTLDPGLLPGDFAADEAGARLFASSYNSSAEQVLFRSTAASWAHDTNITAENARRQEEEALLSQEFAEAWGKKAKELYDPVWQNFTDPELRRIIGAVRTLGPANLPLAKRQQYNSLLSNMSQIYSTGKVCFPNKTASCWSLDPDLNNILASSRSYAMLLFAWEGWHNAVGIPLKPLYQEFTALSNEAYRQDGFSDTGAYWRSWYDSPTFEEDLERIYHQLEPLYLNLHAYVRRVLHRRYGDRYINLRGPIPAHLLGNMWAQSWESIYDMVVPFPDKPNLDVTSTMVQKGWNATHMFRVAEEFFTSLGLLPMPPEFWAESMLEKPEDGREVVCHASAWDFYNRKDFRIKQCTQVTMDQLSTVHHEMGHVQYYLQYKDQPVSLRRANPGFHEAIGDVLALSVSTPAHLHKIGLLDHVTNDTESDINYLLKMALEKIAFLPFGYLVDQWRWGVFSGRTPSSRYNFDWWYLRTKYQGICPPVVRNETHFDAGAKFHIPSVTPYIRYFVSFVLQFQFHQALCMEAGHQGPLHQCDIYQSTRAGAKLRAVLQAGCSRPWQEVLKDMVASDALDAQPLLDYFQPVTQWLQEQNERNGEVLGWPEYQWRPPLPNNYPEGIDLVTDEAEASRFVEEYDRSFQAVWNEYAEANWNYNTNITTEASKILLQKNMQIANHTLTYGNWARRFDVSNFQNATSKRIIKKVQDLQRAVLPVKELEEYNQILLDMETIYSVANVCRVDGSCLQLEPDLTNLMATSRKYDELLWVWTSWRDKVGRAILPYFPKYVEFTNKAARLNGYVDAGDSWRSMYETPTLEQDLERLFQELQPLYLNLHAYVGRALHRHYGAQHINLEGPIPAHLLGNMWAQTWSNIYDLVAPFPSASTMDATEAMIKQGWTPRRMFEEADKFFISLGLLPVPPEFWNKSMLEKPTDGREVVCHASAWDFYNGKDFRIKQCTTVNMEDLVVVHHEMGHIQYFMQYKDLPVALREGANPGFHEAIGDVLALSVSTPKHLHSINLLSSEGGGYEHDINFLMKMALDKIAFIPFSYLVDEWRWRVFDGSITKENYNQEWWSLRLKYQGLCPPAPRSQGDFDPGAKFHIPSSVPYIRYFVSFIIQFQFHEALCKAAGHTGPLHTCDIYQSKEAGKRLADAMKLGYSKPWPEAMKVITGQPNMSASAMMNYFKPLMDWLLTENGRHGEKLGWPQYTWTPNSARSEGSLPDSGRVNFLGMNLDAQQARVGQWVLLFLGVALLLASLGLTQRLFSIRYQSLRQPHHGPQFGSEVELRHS
Test: biochemical
Assay type: tissue-based, Lung
Conditions: not given

Structure (SMILES) | IC50
C=C(C)[C@@H]1[C@H]2OC(=O)[C@@H]1[C@]1(O)C[C@H]3O[C@]34C(=O)O[C@H]2[C@]14C [PICROTOXININ] | Not Active
CCc1ccc(C(=O)C(C)CN2CCCCC2)cc1 (centres undefined) [EPERISONE] | Not Active
C/C=C1\[C@H]2C=C(C)C[C@]1(N)c1ccc(=O)[nH]c1C2 [HUPERZINE A] | Not Active
CC1COc2c(N3CCN(C)CC3)c(F)cc3c(=O)c(C(=O)O)cn1c23 (centres undefined) [OFLOXACIN] | Not Active

Biological target: Glycine receptor (Rattus norvegicus, UniProt P22771+P24524+P07727+P20781); further: in other assays of this panel Not Active means under 50% inhibition at 10 µM
Test: not given
Assay type: cell membranes, Wistar, Spinal cord, Membrane
Conditions: not given

Structure (SMILES) | IC50
C=C(C)[C@@H]1[C@H]2OC(=O)[C@@H]1[C@]1(O)C[C@H]3O[C@]34C(=O)O[C@H]2[C@]14C [PICROTOXININ] | Not Active
CCc1ccc(C(=O)C(C)CN2CCCCC2)cc1 (centres undefined) [EPERISONE] | Not Active
C/C=C1\[C@H]2C=C(C)C[C@]1(N)c1ccc(=O)[nH]c1C2 [HUPERZINE A] | Not Active
CC1COc2c(N3CCN(C)CC3)c(F)cc3c(=O)c(C(=O)O)cn1c23 (centres undefined) [OFLOXACIN] | Not Active

Test system: not listed separately
Test: DRUGMATRIX: Potassium Channel [KATP] radioligand binding (ligand: [3H] Glyburide)
Assay type: cell membranes, Membrane
Conditions: hit-t15; Not Active = under 50% inhibition at 10 µM

Structure (SMILES) | IC50 | Ki
C=C(C)[C@@H]1[C@H]2OC(=O)[C@@H]1[C@]1(O)C[C@H]3O[C@]34C(=O)O[C@H]2[C@]14C [PICROTOXININ] | Not Active | Not Active
CCc1ccc(C(=O)C(C)CN2CCCCC2)cc1 (centres undefined) [EPERISONE] | Not Active | Not Active
C/C=C1\[C@H]2C=C(C)C[C@]1(N)c1ccc(=O)[nH]c1C2 [HUPERZINE A] | Not Active | Not Active
CC1COc2c(N3CCN(C)CC3)c(F)cc3c(=O)c(C(=O)O)cn1c23 (centres undefined) [OFLOXACIN] | Not Active | Not Active
